Source: article PMC7876453, “Targeting Indoleamine 2,3-Dioxygenase in Cancer Models Using the Novel Small Molecule Inhibitor NTRC 3883-0” (Frontiers in Immunology, 2021)
Where two headings read alike, the source gives them in different places.

Legend:
[1] = tested on: panel of 44 pharmacologically relevant receptors, ion channels, transporters and enzymes; assay: Eurofins-CEREP selectivity panel; conditions: 10 µM
mIDO1 = target: T1, mIDO1 (Mus musculus, UniProt P28776); assay: mouse IDO1 biochemical assay (NFK GreenScreen)
T1 construct: Full-length recombinant human and mouse IDO1 were expressed in Escherichia coli with a hexahistidine tag at the N-terminus; hexahistidine (N); made in house; host or cells: Escherichia coli
T1 sequence (P28776 whole entry): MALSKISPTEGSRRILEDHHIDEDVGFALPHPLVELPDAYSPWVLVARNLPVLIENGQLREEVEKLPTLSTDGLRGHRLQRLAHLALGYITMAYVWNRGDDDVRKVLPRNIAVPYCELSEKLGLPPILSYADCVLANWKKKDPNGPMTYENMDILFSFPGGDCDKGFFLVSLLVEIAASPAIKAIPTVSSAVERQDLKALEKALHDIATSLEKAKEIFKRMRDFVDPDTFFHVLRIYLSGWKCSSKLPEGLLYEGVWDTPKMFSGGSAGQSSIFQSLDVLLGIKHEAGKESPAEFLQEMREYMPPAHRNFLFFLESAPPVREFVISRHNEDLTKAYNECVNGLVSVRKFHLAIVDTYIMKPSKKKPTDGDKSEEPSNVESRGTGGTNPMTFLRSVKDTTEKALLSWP

[2] = plasma protein binding, human; type: in vitro ADME; conditions: column Human (predicted)
Procedure: Supplement DataSheet_1.docx, table 2: Table S2. Pharmacokinetic parameters of NTRC 3883-0 observed in mouse, rat, monkey and dog, and predicted for humans using allometric scaling. Data in bold are measured, while data in italics are calculated or predicted (for humans). The clearance (Cl) and volume of distribution at steady state (Vss | column: Human (predicted)

[3] = human pharmacokinetics predicted by allometric scaling; conditions: predicted parameters, assuming 100% bioavailability
Procedure: (§1) Pharmacokinetic properties of NTRC 3883-0 were determined in plasma following single oral (p.o.) and i.v. administration to male CD-1 mice (n = 6 per treatment group with three mice sampled per time point), Wistar rats (n = 3), cynomolgus monkey (n = 1) and Beagle dogs (n = 3). Formulations were prepared in DMSO, Kolliphor® EL, 5% D-mannitol in Elix water at a volume ratio of 1:1:8 for i.v. administration, and in 0.5% gelatin, 5% D-mannitol in Elix water for p.o. administration. Plasma samples were collected at eight to eleven time points up to 24 h after administration. Pharmacokinetic properties and required dosing in humans were predicted by allometric scaling by Karin Jorga Life Science Consulting (Basel, Switzerland) ( Figure S2 and Table S2 ).
Table S2. Pharmacokinetic parameters of NTRC 3883-0 observed in mouse, rat, monkey and dog, and predicted for humans using allometric scaling. Data in bold are measured, while data in italics are calculated or predicted (for humans). The clearance (Cl) and volume of distribution at steady state (Vss) in humans are predicted based on extrapolation of the parameters in the four species as shown in Supplementary Figure S2. […] The half-life (t1/2) in humans was predicted as Vss/Cl. […] ND = not determined.

[4] = tested on: IFNγ-stimulated adherent cell samples isolated from ascites of ovarian cancer patients; assay: Trp-catabolizing activity in IFNγ-stimulated ascites cell samples; type: cell-based; conditions: Homo sapiens
Procedure: Ascites was collected from patients with a primary diagnosis of advanced epithelial ovarian cancer during paracentesis for diagnostics or symptom relieve, or during primary debulking surgery. Ascites was filtered and cells were collected by centrifugation as described ([23]). To enrich for tumor cells, ascites cell samples were allowed to adhere overnight to tissue culture plastic. The cell samples were then cultured for 2–3 weeks in advanced RPMI medium (ThermoFisher), supplemented with 10% FBS, 1% glutamax and 1% P/S, with 2 or 3 times passaging of the cells. qPCR analyses of the MUC16, HE4, IDO1, and TDO2 genes were performed for all samples as described above. Five samples which could be cultured over multiple passages were analyzed for cell surface expression of mucin-16 and EpCAM by flow cytometry using FITC-conjugated anti-mucin-16 (AssayPro, #32189-05141) and APC-conjugated anti-EpCAM (Miltenyi, #130-111-117, RRID: AB_2657496) to assure that the cell cultures consisted of malignant cells. IDO1 mRNA and protein levels in these samples were analyzed as described above after incubation with or without 200 ng/ml IFNγ for 24 h. The collection of ascites and the research described was conducted with approval of the medical ethical committee of the Radboud university medical center and informed written consent from each subject.

HEK-hIDO1 = HEK-hIDO1 (Homo sapiens, UniProt P14902); assay: cell-based assay, Trp-catabolizing activity in HEK-hIDO1 cells
HEK-hIDO1, sequence (P14902 whole entry): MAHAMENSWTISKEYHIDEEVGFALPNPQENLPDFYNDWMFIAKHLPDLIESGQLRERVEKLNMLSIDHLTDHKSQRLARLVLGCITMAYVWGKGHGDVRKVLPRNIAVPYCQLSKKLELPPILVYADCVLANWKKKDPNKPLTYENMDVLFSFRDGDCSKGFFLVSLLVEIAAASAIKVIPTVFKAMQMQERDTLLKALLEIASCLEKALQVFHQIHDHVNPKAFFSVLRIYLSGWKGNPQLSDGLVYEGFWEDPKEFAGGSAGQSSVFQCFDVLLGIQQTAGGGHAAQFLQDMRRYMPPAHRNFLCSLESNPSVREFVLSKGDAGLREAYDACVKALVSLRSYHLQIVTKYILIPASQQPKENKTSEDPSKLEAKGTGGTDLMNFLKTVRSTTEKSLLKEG

[5] = plasma protein binding, rat; type: in vitro ADME
Procedure: Supplement DataSheet_1.docx, table 2: Table S2. Pharmacokinetic parameters of NTRC 3883-0 observed in mouse, rat, monkey and dog, and predicted for humans using allometric scaling. Data in bold are measured, while data in italics are calculated or predicted (for humans). The clearance (Cl) and volume of distribution at steady state (Vss | column: Rat

[6] = in vivo pharmacokinetics, dog; design: species or system Beagle dogs; conditions: Beagle, plasma; for clearance / Vd: intravenous; for Vd: read-out: Vss
Procedure: as §1

GL-261-mTDO = GL-261-mTDO (Mus musculus, UniProt P48776); assay: cell-based assay, Trp-catabolizing activity in GL-261-mTDO cells; conditions: read-out: inhibition GL-261-mTDO
GL-261-mTDO, sequence (P48776 whole entry): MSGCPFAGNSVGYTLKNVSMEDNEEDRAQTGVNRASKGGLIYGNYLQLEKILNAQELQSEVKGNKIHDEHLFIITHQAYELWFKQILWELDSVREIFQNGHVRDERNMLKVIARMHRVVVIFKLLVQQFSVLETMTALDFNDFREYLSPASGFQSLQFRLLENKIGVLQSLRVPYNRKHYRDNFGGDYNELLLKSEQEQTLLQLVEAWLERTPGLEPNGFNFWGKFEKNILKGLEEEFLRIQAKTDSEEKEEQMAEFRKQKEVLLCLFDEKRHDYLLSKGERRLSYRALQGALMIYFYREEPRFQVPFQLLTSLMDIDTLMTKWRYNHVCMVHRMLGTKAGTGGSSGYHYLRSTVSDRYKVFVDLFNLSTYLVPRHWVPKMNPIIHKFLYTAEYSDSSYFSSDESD

[7] = tested on: B16F10-mIDO1 subline j19 in female B6D2F1 mice; assay: B16F10-mIDO1 syngeneic mouse model, intervention study; type: in vivo
Description: For development of the mIDO1-overexpressing B16F10 mouse model, performed at Charles River Laboratories, female B6D2F1 mice were implanted subcutaneously with 1 × 10^6 parental B16F10 cells or B16F10-mIDO1 cells (subline i6 or j19) on day 0 with n = 10 mice per group. A tumor volume of 2000 mm^3 was used as the endpoint of the experiment for the individual animals. To determine the optimal inoculation cell concentration, mice were implanted with 3 × 10^5, 1 × 10^5 or 3 × 10^4 parental or mIDO1-overexpressing B16F10 cells (subline j19) with n = 5 mice per group. The same endpoint of the experiment was used as described above. […] For the intervention study, 3 x 10^5 cells of the B16F10-mIDO1 subline j19 were implanted on day 0, and treatment was started on day 3 with vehicle (DMSO, Kolliphor, 5% mannitol; […]. Four animals were excluded from analysis due to non-treatment-related deaths. Tumors and plasma were sampled 2 h post last dose.
[…]. After centrifugation, proteins were removed from the homogenized tissue supernatants and plasma samples by precipitation with methanol. The concentrations of inhibitor, Trp and Kyn were determined by LC-MS/MS.

[8] = in vivo pharmacokinetics, monkey; conditions: cynomolgus monkey, plasma; for clearance / Vd: intravenous; for Vd: read-out: Vss
Procedure: as §1

[9] = 100 mg/kg p.o. b.i.d. from day 3
[10] = 100 mg/kg p.o. b.i.d., 2 h post last dose

O=C1CN(C(=O)c2c(F)cccc2F)[C@H](c2cccc(Br)c2)N1O [NTRC 3883-0]
cross-reactivities in panel of 44 targets [1]: no cross-reactivities | IC50 (mIDO1): 93 nM | fraction unbound [2]: 0.26 | minimum dose required to reach a target concentration of 1 μM on average during the dosing interval [3]: 1725 mg per day | IC50 ([4]; IFNγ-stimulated samples, read-out: IC50): 261 nM | IC50 ([4]; IFNγ-stimulated, read-out: IC50 ASC 009): 236 nM | IC50 ([4]; IFNγ-stimulated, read-out: IC50 ASC 010): 294 nM | IC50 ([4]; IFNγ-stimulated, read-out: IC50 ASC 013): 237 nM | IC50 ([4]; IFNγ-stimulated, read-out: IC50 ASC 031): 271 nM | IC50 ([4]; IFNγ-stimulated, read-out: IC50 ASC 041): 321 nM | IC50 (HEK-hIDO1): 119 nM | fraction unbound [5]: 0.15 | half-life [6]: 2.8 h | clearance [6]: 28.6 mL/min/kg | clearance ([6]; body weight 10 kg): 286 mL/min | Vd ([6]; body weight 10 kg): 13.6 L | Vd [6]: 1.36 L/kg | bioavailability ([6]; po, p.o. versus i.v., read-out: Bioavailability (F)): 32% | inhibition at 31.6 µM (GL-261-mTDO): < 20% | times lower intratumoral levels of Kyn compared to epacadostat ([7]; 100 mg/kg p.o. b.i.d.): 3.6 times | tumor growth corrected for the variation in time until tumor establishment [7, 9]: delay in tumor growth | tumor growth in comparison to vehicle-treated animals [7, 9]: no effect | times lower inhibitor level in plasma compared to epacadostat [7, 10]: 1.8 times | times lower inhibitor level in the tumors compared to epacadostat [7, 10]: 2.2 times | intratumoral Trp levels ([7]; 100 mg/kg p.o. b.i.d., LC-MS/MS): slightly more efficient in increasing Trp | half-life [8]: 2.4 h | clearance [8]: 37 mL/min/kg | clearance ([8]; monkey, body weight 3.0 kg): 111 mL/min | Vd ([8]; monkey, body weight 3.0 kg): 6.74 L | Vd [8]: 2.25 L/kg | bioavailability ([8]; po, monkey, p.o. versus i.v., read-out: Bioavailability (F)): 49%
